{
  "source": "ChEMBL document CHEMBL1201862",
  "about": "“PubChem BioAssay data set” (2004)",
  "test_in_all_cases": "NCI tumour cell line growth inhibition, 48 h",
  "key": {"CCRF-CEM": {"test_system": "CCRF-CEM"}, "DU-145": {"test_system": "DU-145"}, "HCC 2998": {"test_system": "HCC 2998"}, "HCT-15": {"test_system": "HCT-15"}, "HL-60": {"test_system": "HL-60"}, "HOP-62": {"test_system": "HOP-62"}, "MDA-MB-435": {"test_system": "MDA-MB-435"}, "MOLT-4": {"test_system": "MOLT-4"}, "Malme-3M": {"test_system": "Malme-3M"}, "NCI-H226": {"test_system": "NCI-H226"}, "NCI-H460": {"test_system": "NCI-H460"}, "NCI/ADR-RES": {"test_system": "NCI/ADR-RES"}, "SF-268": {"test_system": "SF-268"}, "SF-295": {"test_system": "SF-295"}, "T47D": {"test_system": "T47D"}, "UACC-257": {"test_system": "UACC-257"}, "UO-31": {"test_system": "UO-31"}, "OVCAR-5": {"test_system": "OVCAR-5"}, "SK-MEL-2": {"test_system": "SK-MEL-2"}, "UACC-62": {"test_system": "UACC-62"}},
  "note": "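A five-concentration, 48-hour dose response in 96-well plates underlies each endpoint, interpolated linearly between surrounding concentrations. GI50 marks 50% less growth.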 The source made the active and inactive calls. Cut-off read from the data, not from the text of the source: active = GI50 up to about 1.1 µM and inactive = higher.",
  "data": [
    {"smiles": "O=C1CC(CC(O)C(O)CO)CC(=O)N1", "note": "(stereo not drawn)", "values": [
      {"measurement": "GI50", "setting": "CCRF-CEM", "result": "> 100 µM (inactive)"},
      {"measurement": "GI50", "setting": "DU-145", "result": "> 100 µM (inactive)"},
      {"measurement": "GI50", "setting": "HCC 2998", "result": "> 100 µM (inactive)"},
      {"measurement": "GI50", "setting": "HCT-15", "result": "> 100", "unit": "µM"},
      {"measurement": "GI50", "setting": "HL-60", "result": "> 100 µM (inactive)"},
      {"measurement": "GI50", "setting": "HOP-62", "result": "> 100 µM (inactive)"},
      {"measurement": "GI50", "setting": "MDA-MB-435", "result": "> 100 µM (inactive)"},
      {"measurement": "GI50", "setting": "MOLT-4", "result": "> 100 µM (inactive)"},
      {"measurement": "GI50", "setting": "Malme-3M", "result": "> 100 µM (inactive)"},
      {"measurement": "GI50", "setting": "NCI-H226", "result": "> 100 µM (inactive)"},
      {"measurement": "GI50", "setting": "NCI-H460", "result": "> 100 µM (inactive)"},
      {"measurement": "GI50", "setting": "NCI/ADR-RES", "result": "> 100 µM (inactive)"},
      {"measurement": "GI50", "setting": "SF-268", "result": "> 100 µM (inactive)"},
      {"measurement": "GI50", "setting": "SF-295", "result": "> 100 µM (inactive)"},
      {"measurement": "GI50", "setting": "T47D", "result": "> 100 µM (inactive)"},
      {"measurement": "GI50", "setting": "UACC-257", "result": "> 100 µM (inactive)"},
      {"measurement": "GI50", "setting": "UO-31", "result": "> 100 µM (inactive)"}
    ]},
    {"smiles": "C[C@]12CC/C(=N\\OCCN3CCCC3)C=C1CCC1C2CC[C@@]2(C)C1CC[C@]2(C)O", "note": "(stereo partly drawn)", "values": [
      {"measurement": "GI50", "setting": "CCRF-CEM", "result": "3.56 µM (inactive)"},
      {"measurement": "GI50", "setting": "DU-145", "result": "11.3 µM (inactive)"},
      {"measurement": "GI50", "setting": "HCC 2998", "result": "11.8 µM (inactive)"},
      {"measurement": "GI50", "setting": "HCT-15", "result": 3.29, "unit": "µM"},
      {"measurement": "GI50", "setting": "HOP-62", "result": "13.1 µM (inactive)"},
      {"measurement": "GI50", "setting": "MDA-MB-435", "result": "2.28 µM (inactive)"},
      {"measurement": "GI50", "setting": "MOLT-4", "result": "3.74 µM (inactive)"},
      {"measurement": "GI50", "setting": "Malme-3M", "result": "5.21 µM (inactive)"},
      {"measurement": "GI50", "setting": "NCI-H226", "result": "2.9 µM (inactive)"},
      {"measurement": "GI50", "setting": "NCI-H460", "result": "3.97 µM (inactive)"},
      {"measurement": "GI50", "setting": "NCI/ADR-RES", "result": "3.6 µM (inactive)"},
      {"measurement": "GI50", "setting": "OVCAR-5", "result": "33.3 µM (inactive)"},
      {"measurement": "GI50", "setting": "SF-268", "result": "13.3 µM (inactive)"},
      {"measurement": "GI50", "setting": "SF-295", "result": "3.35 µM (inactive)"},
      {"measurement": "GI50", "setting": "SK-MEL-2", "result": "16.4 µM (inactive)"},
      {"measurement": "GI50", "setting": "T47D", "result": "12.3 µM (inactive)"},
      {"measurement": "GI50", "setting": "UACC-257", "result": "5.6 µM (inactive)"},
      {"measurement": "GI50", "setting": "UACC-62", "result": "3.35 µM (inactive)"},
      {"measurement": "GI50", "setting": "UO-31", "result": "11.7 µM (inactive)"}
    ]},
    {"smiles": "COC(=O)C(Cc1ccccc1)NS(=O)(=O)c1ccc(-c2c3nc(c(-c4ccc(S(=O)(=O)NC(Cc5ccccc5)C(=O)OC)cc4)c4ccc([nH]4)c(-c4ccc(S(=O)(=O)NC(Cc5ccccc5)C(=O)OC)cc4)c4nc(c(-c5ccc(S(=O)(=O)NC(Cc6ccccc6)C(=O)OC)cc5)c5ccc2[nH]5)C=C4)C=C3)cc1", "note": "(stereo not drawn)", "values": [
      {"measurement": "GI50", "setting": "CCRF-CEM", "result": "> 100 µM (inactive)"},
      {"measurement": "GI50", "setting": "DU-145", "result": "> 100 µM (inactive)"},
      {"measurement": "GI50", "setting": "HCC 2998", "result": "> 100 µM (inactive)"},
      {"measurement": "GI50", "setting": "HCT-15", "result": "> 100", "unit": "µM"},
      {"measurement": "GI50", "setting": "HL-60", "result": "> 100 µM (inactive)"},
      {"measurement": "GI50", "setting": "HOP-62", "result": "60.8 µM (inactive)"},
      {"measurement": "GI50", "setting": "MDA-MB-435", "result": "> 100 µM (inactive)"},
      {"measurement": "GI50", "setting": "MOLT-4", "result": "> 100 µM (inactive)"},
      {"measurement": "GI50", "setting": "Malme-3M", "result": "> 100 µM (inactive)"},
      {"measurement": "GI50", "setting": "NCI-H460", "result": "85.5 µM (inactive)"},
      {"measurement": "GI50", "setting": "NCI/ADR-RES", "result": "> 100 µM (inactive)"},
      {"measurement": "GI50", "setting": "OVCAR-5", "result": "> 100 µM (inactive)"},
      {"measurement": "GI50", "setting": "SF-268", "result": "> 100 µM (inactive)"},
      {"measurement": "GI50", "setting": "SF-295", "result": "54.6 µM (inactive)"},
      {"measurement": "GI50", "setting": "SK-MEL-2", "result": "> 100 µM (inactive)"},
      {"measurement": "GI50", "setting": "T47D", "result": "> 100 µM (inactive)"},
      {"measurement": "GI50", "setting": "UACC-257", "result": "> 100 µM (inactive)"},
      {"measurement": "GI50", "setting": "UACC-62", "result": "> 100 µM (inactive)"},
      {"measurement": "GI50", "setting": "UO-31", "result": "> 100 µM (inactive)"}
    ]},
    {"smiles": "COC(=O)c1sc(=S)sc1SCc1cccc(CSc2sc(=S)sc2C(=O)OC)c1", "values": [
      {"measurement": "GI50", "setting": "CCRF-CEM", "result": "> 100 µM (inactive)"},
      {"measurement": "GI50", "setting": "DU-145", "result": "> 100 µM (inactive)"},
      {"measurement": "GI50", "setting": "HCC 2998", "result": "> 100 µM (inactive)"},
      {"measurement": "GI50", "setting": "HCT-15", "result": "> 100", "unit": "µM"},
      {"measurement": "GI50", "setting": "HOP-62", "result": "16.1 µM (inactive)"},
      {"measurement": "GI50", "setting": "MDA-MB-435", "result": "> 100 µM (inactive)"},
      {"measurement": "GI50", "setting": "MOLT-4", "result": "> 100 µM (inactive)"},
      {"measurement": "GI50", "setting": "Malme-3M", "result": "> 100 µM (inactive)"},
      {"measurement": "GI50", "setting": "NCI-H460", "result": "> 100 µM (inactive)"},
      {"measurement": "GI50", "setting": "NCI/ADR-RES", "result": "> 100 µM (inactive)"},
      {"measurement": "GI50", "setting": "OVCAR-5", "result": "> 100 µM (inactive)"},
      {"measurement": "GI50", "setting": "SF-268", "result": "44.5 µM (inactive)"},
      {"measurement": "GI50", "setting": "SF-295", "result": "26 µM (inactive)"},
      {"measurement": "GI50", "setting": "SK-MEL-2", "result": "38.8 µM (inactive)"},
      {"measurement": "GI50", "setting": "T47D", "result": "> 100 µM (inactive)"},
      {"measurement": "GI50", "setting": "UACC-257", "result": "> 100 µM (inactive)"},
      {"measurement": "GI50", "setting": "UACC-62", "result": "22.9 µM (inactive)"},
      {"measurement": "GI50", "setting": "UO-31", "result": "> 100 µM (inactive)"}
    ]}
  ]
}
